Measurements reported in ChEMBL document CHEMBL1201862, “PubChem BioAssay data set” (2004).
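Each compound was tested at five concentrations against cells in 96-well plates for 48 hours. At the GI50, growth is halved.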 Calls of active or inactive are those of the source. Cut-off read from the data, not from the text of the source: active = GI50 up to about 1.1 µM and inactive = higher.

Tests used:
Assay in all cases: growth of human tumour cells (NCI), 48 h
[1] = system: A549
[2] = system: CCRF-CEM
[3] = system: HCT-116
[4] = system: HCT-15
[5] = system: HL-60
[6] = system: HT-29
[7] = system: K562
[8] = system: KM12
[9] = system: OVCAR-4
[10] = system: SF-268
[11] = system: SN12C
[12] = system: SNB-19
[13] = system: SNB-75
[14] = system: HOP-62
[15] = system: IGROV-1
[16] = system: Malme-3M
[17] = system: OVCAR-5
[18] = system: RPMI-8226
[19] = system: SF-539
[20] = system: SK-MEL-2

Row | Compound | GI50 [1] | GI50 [2] | GI50 [3] | GI50 [4] | GI50 [5] | GI50 [6] | GI50 [7] | GI50 [8] | GI50 [9] | GI50 [10] | GI50 [11] | GI50 [12] | GI50 [13] | GI50 [14] | GI50 [15] | GI50 [16] | GI50 [17] | GI50 [18] | GI50 [19] | GI50 [20]
1 | ClCC1(CCl)COC1 | > 100 µM (inactive) | > 100 µM (inactive) | > 100 µM (inactive) | > 100 µM | > 100 µM (inactive) | > 100 µM (inactive) | > 100 µM (inactive) | > 100 µM (inactive) | > 100 µM (inactive) | > 100 µM (inactive) | > 100 µM (inactive) | > 100 µM (inactive) | > 100 µM (inactive) |  |  |  |  |  |  | 
2 | Cc1ccc(Nc2nc3ccccc3nc2NS(=O)(=O)c2ccc(N)cc2)cc1 | 34.5 µM (inactive) | 18.4 µM (inactive) | 37.3 µM (inactive) | 49.8 µM | 21.9 µM (inactive) | 68.4 µM (inactive) | 31.5 µM (inactive) | 23.5 µM (inactive) | 19.3 µM (inactive) | 89.7 µM (inactive) | 48.3 µM (inactive) | 31.1 µM (inactive) | 84.9 µM (inactive) | > 100 µM (inactive) | 56.8 µM (inactive) | 91.2 µM (inactive) | > 100 µM (inactive) | 23.6 µM (inactive) | 39.4 µM (inactive) | 29.4 µM (inactive)
3 | COc1c(Br)cc(CC(N)=O)c(O)c1Br | > 100 µM (inactive) | > 100 µM (inactive) | > 100 µM (inactive) |  | > 100 µM (inactive) | > 100 µM (inactive) | > 100 µM (inactive) | > 100 µM (inactive) | > 100 µM (inactive) | > 100 µM (inactive) | > 100 µM (inactive) | > 100 µM (inactive) | > 100 µM (inactive) | > 100 µM (inactive) | > 100 µM (inactive) | > 100 µM (inactive) | > 100 µM (inactive) |  | > 100 µM (inactive) | > 100 µM (inactive)
4 | CN(/N=C1\C(=O)Nc2ccccc21)c1ccccc1 | 72.9 µM (inactive) | 58.7 µM (inactive) | 57.8 µM (inactive) | 44.2 µM | 56.5 µM (inactive) | 54.3 µM (inactive) | > 100 µM (inactive) | 29.6 µM (inactive) | 95.3 µM (inactive) | 43.2 µM (inactive) |  | > 100 µM (inactive) | 2.32 µM (inactive) | 49.7 µM (inactive) | 36.6 µM (inactive) | 31.9 µM (inactive) | 45.6 µM (inactive) | 74.3 µM (inactive) | 41.2 µM (inactive) | > 100 µM (inactive)
5 | c1ccc(NN/N=N/c2ccc(-c3nc4ccccc4[nH]3)cc2)cc1 | 37 µM (inactive) | 20.7 µM (inactive) | 28 µM (inactive) | 13 µM | 22 µM (inactive) | 25 µM (inactive) | 8.43 µM (inactive) | 19.5 µM (inactive) | 23.4 µM (inactive) |  | 32.2 µM (inactive) | > 100 µM (inactive) | 23.8 µM (inactive) | 41.3 µM (inactive) | 27.8 µM (inactive) | 28.7 µM (inactive) | > 100 µM (inactive) | 14.2 µM (inactive) | 77.6 µM (inactive) | 23.9 µM (inactive)
6 | COc1cc(O)cc2oc(-c3ccc(O)cc3)cc(=O)c12 | > 100 µM (inactive) | > 100 µM (inactive) | 44.4 µM (inactive) | > 100 µM | > 100 µM (inactive) | > 100 µM (inactive) | > 100 µM (inactive) | > 100 µM (inactive) |  | 67.8 µM (inactive) | > 100 µM (inactive) | > 100 µM (inactive) | 14 µM (inactive) | 74.6 µM (inactive) | 47.3 µM (inactive) | 76.6 µM (inactive) | > 100 µM (inactive) | 66.1 µM (inactive) | > 100 µM (inactive) | 52.8 µM (inactive)
7 | C[C@]12CC[C@H]3[C@@H](CCC4=CC(=O)CC[C@@]43C)[C@@H]1CC[C@@H]2C(=O)COS(=O)(=O)c1ccc(Br)cc1 | 18.7 µM (inactive) | 0.207 µM (active) |  | 14.2 µM | 4.69 µM (inactive) | 11.8 µM (inactive) | 4.09 µM (inactive) | 15.1 µM (inactive) | 4.5 µM (inactive) | 8.93 µM (inactive) | 5.97 µM (inactive) | 19.5 µM (inactive) | 17.5 µM (inactive) | 17 µM (inactive) | 1.6 µM (inactive) | 3.49 µM (inactive) | 18.1 µM (inactive) | 2.35 µM (inactive) | 9.25 µM (inactive) | 8.38 µM (inactive)
8 | CN(C)CCCn1c(-c2cc(C(C)(C)C)c(O)c(C(C)(C)C)c2)cs/c1=N\c1ccccc1 | 1.77 µM (inactive) |  |  | 3.24 µM | 0.1 µM (active) |  |  | 1.91 µM (inactive) | 2.09 µM (inactive) | 1.85 µM (inactive) | 2.08 µM (inactive) | 2.14 µM (inactive) | 3.88 µM (inactive) | 1.89 µM (inactive) |  |  | 2.23 µM (inactive) | 1.4 µM (inactive) | 1.75 µM (inactive) | 3.06 µM (inactive)
9 | Cc1cnc(/N=c2\sc(C)cn2-c2ncc(C)s2)s1 | > 100 µM (inactive) | > 100 µM (inactive) | > 100 µM (inactive) | > 100 µM | > 100 µM (inactive) | > 100 µM (inactive) | > 100 µM (inactive) | > 100 µM (inactive) | > 100 µM (inactive) | > 100 µM (inactive) | > 100 µM (inactive) | > 100 µM (inactive) | 71.3 µM (inactive) | > 100 µM (inactive) | > 100 µM (inactive) | > 100 µM (inactive) | > 100 µM (inactive) | > 100 µM (inactive) | > 100 µM (inactive) | 
10 | COC(=O)c1cn(CC(O)CCl)nn1 (stereo not drawn) | > 100 µM (inactive) | > 100 µM (inactive) |  | > 100 µM | > 10 µM (inactive) | > 100 µM (inactive) | > 100 µM (inactive) | > 100 µM (inactive) | > 100 µM (inactive) | > 100 µM (inactive) | > 100 µM (inactive) | > 100 µM (inactive) | > 100 µM (inactive) | > 100 µM (inactive) | > 100 µM (inactive) | > 100 µM (inactive) | > 100 µM (inactive) | > 100 µM (inactive) | > 100 µM (inactive) | > 100 µM (inactive)
11 | COc1cc(C2C(C(=O)O)=C(CO)Oc3cc4c(cc32)OCO4)cc(OC)c1O (stereo not drawn) | > 100 µM (inactive) | > 100 µM (inactive) | > 100 µM (inactive) | > 100 µM | > 100 µM (inactive) | > 100 µM (inactive) | > 100 µM (inactive) |  | > 100 µM (inactive) |  | > 100 µM (inactive) | > 100 µM (inactive) | > 100 µM (inactive) | > 100 µM (inactive) | > 100 µM (inactive) | > 100 µM (inactive) |  | > 100 µM (inactive) | > 100 µM (inactive) | 
12 | CC(=O)OC(OC(C)=O)n1cc(C=O)c2ccccc21 | > 100 µM (inactive) | > 100 µM (inactive) | > 100 µM (inactive) | > 100 µM | > 100 µM (inactive) | > 100 µM (inactive) | > 100 µM (inactive) |  | > 100 µM (inactive) |  | > 100 µM (inactive) | > 100 µM (inactive) | > 10 µM (inactive) | > 100 µM (inactive) | > 10 µM (inactive) |  | > 100 µM (inactive) | > 100 µM (inactive) |  | > 100 µM (inactive)
13 | CC(=O)C1CC[C@@H]2[C@H](CC[C@]3(C)[C@@H](O)CC[C@@H]23)[C@H]1C(=O)O (stereo partly drawn) | > 100 µM (inactive) | > 100 µM (inactive) |  | > 100 µM | > 100 µM (inactive) | > 100 µM (inactive) | > 100 µM (inactive) | > 100 µM (inactive) | > 100 µM (inactive) | > 100 µM (inactive) |  | > 100 µM (inactive) |  | > 100 µM (inactive) | > 100 µM (inactive) | > 100 µM (inactive) | > 100 µM (inactive) | > 100 µM (inactive) | > 100 µM (inactive) | > 100 µM (inactive)
14 | O=c1[nH]c(=O)n(C2CC(O)C(CO)O2)cc1C(OCC(F)(F)F)OCC(F)(F)F (stereo not drawn) | > 100 µM (inactive) | 70.8 µM (inactive) |  |  | > 100 µM (inactive) | > 100 µM (inactive) | 53.3 µM (inactive) | > 100 µM (inactive) | > 100 µM (inactive) | > 100 µM (inactive) | > 100 µM (inactive) | > 100 µM (inactive) | > 100 µM (inactive) | > 100 µM (inactive) | > 100 µM (inactive) | > 100 µM (inactive) | > 100 µM (inactive) | > 100 µM (inactive) | > 100 µM (inactive) | > 100 µM (inactive)
15 | N#C/N=N/c1cc(Cl)c(/N=N/C#N)cc1Cl | > 100 µM (inactive) | 19.8 µM (inactive) | > 100 µM (inactive) | > 100 µM | 34.7 µM (inactive) | > 100 µM (inactive) | 27.1 µM (inactive) | > 100 µM (inactive) | 47 µM (inactive) | > 100 µM (inactive) | > 100 µM (inactive) | > 100 µM (inactive) | 51.9 µM (inactive) | > 100 µM (inactive) | > 100 µM (inactive) | > 100 µM (inactive) | > 100 µM (inactive) |  | > 100 µM (inactive) | > 100 µM (inactive)
16 | O=C(O)C12CCCCC1CCCC2 (stereo not drawn) | > 100 µM (inactive) | > 100 µM (inactive) | > 100 µM (inactive) | > 100 µM | > 100 µM (inactive) | > 100 µM (inactive) | > 100 µM (inactive) | > 100 µM (inactive) | > 100 µM (inactive) | > 100 µM (inactive) | > 100 µM (inactive) | > 100 µM (inactive) | 98.2 µM (inactive) | > 100 µM (inactive) | > 100 µM (inactive) |  | > 100 µM (inactive) | > 100 µM (inactive) | > 100 µM (inactive) | 
